Experimental data taken from patent US11964988B2, “Fused heterocyclic compounds as RET kinase inhibitors” (ARRAY BIOPHARMA INC., priority 2018, dated 2024).

Columns and labels:
RET kinase V804M = RET kinase V804M (Homo sapiens, UniProt P07949, V804M); assay: RET Enzyme Assay (CisBio HTRF KinEASE-TK), V804M; type: biochemical; conditions: read-out: RET V804M Enz FRET IC50
RET kinase Wild Type = RET kinase Wild Type (Homo sapiens, UniProt P07949); assay: biochemical;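 also: HTRF kinase activity assay on RET enzyme, 1 h reaction at 22 °C, dual-wavelength readout as percent of control, DMSO-only wells as 100%, pre-quenched reactions as 0%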
G810S mutant RET kinase = G810S mutant RET kinase (Homo sapiens, UniProt P07949, G810S); assay: biochemical;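 also: HTRF KinEASE-TK kinase assay with recombinant enzyme, 1 h at 22 °C, dual-wavelength ratiometric read-out, percent of control (DMSO-only = 100, pre-quenched reaction = 0)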
G810R mutant RET kinase = G810R mutant RET kinase (Homo sapiens, UniProt P07949, G810R); assay: biochemical;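 also: HTRF KinEASE-TK enzymatic assay with 1 nM recombinant RET G810R, 1 h at 22 °C, dual-wavelength ratiometric readout, 100% control without compound, 0% from pre-quenched reactions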
Sequence of G810R mutant RET kinase (P07949 29-1114 G810R): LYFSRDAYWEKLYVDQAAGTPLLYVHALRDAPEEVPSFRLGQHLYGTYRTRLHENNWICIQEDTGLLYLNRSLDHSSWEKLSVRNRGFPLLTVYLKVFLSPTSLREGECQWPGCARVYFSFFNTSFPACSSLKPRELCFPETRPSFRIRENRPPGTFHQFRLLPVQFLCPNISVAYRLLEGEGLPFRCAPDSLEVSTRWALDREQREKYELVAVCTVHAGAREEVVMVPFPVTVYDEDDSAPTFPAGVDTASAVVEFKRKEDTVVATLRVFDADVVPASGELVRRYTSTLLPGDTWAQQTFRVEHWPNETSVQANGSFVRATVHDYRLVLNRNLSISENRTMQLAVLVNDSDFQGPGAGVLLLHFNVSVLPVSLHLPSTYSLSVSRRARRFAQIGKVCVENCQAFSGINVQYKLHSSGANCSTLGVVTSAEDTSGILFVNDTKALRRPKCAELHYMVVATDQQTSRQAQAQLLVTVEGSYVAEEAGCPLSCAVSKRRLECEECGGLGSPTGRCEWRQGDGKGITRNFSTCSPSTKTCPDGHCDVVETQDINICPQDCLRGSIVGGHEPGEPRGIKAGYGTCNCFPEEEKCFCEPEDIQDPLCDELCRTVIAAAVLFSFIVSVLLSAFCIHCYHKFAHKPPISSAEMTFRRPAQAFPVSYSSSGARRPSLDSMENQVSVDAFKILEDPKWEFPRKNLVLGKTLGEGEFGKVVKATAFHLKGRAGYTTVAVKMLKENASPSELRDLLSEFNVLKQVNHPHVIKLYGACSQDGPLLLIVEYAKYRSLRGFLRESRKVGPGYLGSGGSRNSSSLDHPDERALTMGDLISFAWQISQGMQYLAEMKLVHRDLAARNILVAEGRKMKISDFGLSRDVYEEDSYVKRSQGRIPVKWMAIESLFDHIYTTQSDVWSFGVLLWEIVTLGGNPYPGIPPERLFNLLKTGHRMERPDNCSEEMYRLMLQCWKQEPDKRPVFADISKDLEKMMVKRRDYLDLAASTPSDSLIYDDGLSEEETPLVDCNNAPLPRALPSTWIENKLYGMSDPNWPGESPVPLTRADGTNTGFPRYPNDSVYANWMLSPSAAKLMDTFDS

Sequence of RET kinase V804M (P07949 29-1114 V804M): as the sequence (P07949 29-1114 G810R) above, with V776M, R782G counted along it
Sequence of G810S mutant RET kinase (P07949 29-1114 G810S): as the sequence (P07949 29-1114 G810R) above, with R782S counted along it
Sequence of RET kinase Wild Type (P07949 29-1114): as the sequence (P07949 29-1114 G810R) above, with R782G counted along it

Compound | IC50 (RET kinase V804M) [µM] | IC50 (RET kinase Wild Type) [µM] | IC50 (G810S mutant RET kinase) [µM] | IC50 (G810R mutant RET kinase) [µM]
CC(C)n1c2c(c3c(N)ncnc31)-c1noc(C3CC3)c1C(=O)N(c1cnn(C)c1)C2 [Example 18, 11-amino-3-cyclopropyl-7-isopropyl-5-(1-methyl-1H-pyrazol-4-yl)-6,7-dihydroisoxazolo[4,3-c]pyrimido[5′,4′:4,5]pyrrolo[3,2-e]azepin-4(5H)-one] | 0.692 | 0.153 | 0.397 | 0.253
Nc1ncnc2c1c1c(n2[C@H]2C[C@@H](CO)C2)CCC(O)c2c-1noc2C1CC1 (stereo partly shown) [Example 136, 11-Amino-3-cyclopropyl-7-((1s,3s)-3-(hydroxymethyl)cyclobutyl)-4,5,6,7-tetrahydroisoxazolo[4″,3″:6′,7′]cyclohepta[1′,2′:4,5]pyrrolo[2,3-d]pyrimidin-4-ol 2,2,2-trifluoroacetate] | 0.551 | 0.201 | 0.817 | 0.274
Nc1ncnc2c1c1c(n2C2CCOC2)CCC(=O)c2c-1noc2C1CC1 (stereo not shown) [Example 141, 11-Amino-3-cyclopropyl-7-(tetrahydrofuran-3-yl)-6,7-dihydroisoxazolo[4″,3″:6′,7′]cyclohepta[1′,2′:4,5]pyrrolo[2,3-d]pyrimidin-4(5H)-one] | 0.415 | 0.139 | 0.405 | 0.211
CC(C)n1c2c(c3c(N)ncnc31)-c1cc3cc(C#N)ccc3n1C(=O)NC2 [Example 78, 1-amino-5-isopropyl-8-oxo-5,6,7,8-tetrahydropyrimido[5″,4″:4′,5′]pyrrolo[2′,3′: 5,6][1,3]diazepino[1,7-a]indole-12-carbonitrile] |  | 0.638 | 0.72 | 0.507
Nc1ncnc2c1c1c(n2C2CC(F)(F)C2)CCC(O)c2c-1noc2C1CC1 (stereo not shown) [Example 148, 11-amino-3-cyclopropyl-7-(3,3-difluorocyclobutyl)-4,5,6,7-tetrahydroisoxazolo[4″,3″:6′,7′]cyclohepta[1′,2′:4,5]pyrrolo[2,3-d]pyrimidin-4-ol 2,2,2-trifluoroacetate] | 0.216 | 0.183 | 0.758 | 0.154
CC(C)n1c2c(c3c(N)ncnc31)-c1cc(C3CC3)nn1C(=O)NC2 [Example 106, 12-Amino-2-cyclopropyl-8-isopropyl-7,8-dihydropyrazolo[1,5-c]pyrimido[5′,4′:4,5]pyrrolo[3,2-e][1,3]diazepin-5(6H)-one] |  | 0.404 | 3.27 | 2.42
CC(C)n1c2c(c3c(N)ncnc31)-c1noc(C3CC3)c1CN(C(=O)Cc1ccccc1)C2 [Example 39, 1-(11-amino-3-cyclopropyl-7-isopropyl-6,7-dihydroisoxazolo[4,3-c]pyrimido[5′,4′:4,5]pyrrolo[3,2-e]azepin-5(4H)-yl)-2-phenylethan-1-one] |  | 0.893 | 4.14 | 3.07
Cc1ccc2cc3n(c2c1)C(=O)NCc1c-3c2c(N)ncnc2n1C(C)C [Example 80, 1-amino-5-isopropyl-11-methyl-6,7-dihydropyrimido[5″,4″:4′,5′]pyrrolo[2′,3′: 5,6][1,3]diazepino[1,7-a]indol-8(5H)-one] |  | 0.195 | 0.404 | 0.32
CC(C)n1c2c(c3c(N)ncnc31)-c1cc3ccc(C(=O)Nc4ccn(CC(=O)N(C)C)n4)cc3n1CCC2 [Example 99, 1-amino-N-(1-(2-(dimethylamino)-2-oxoethyl)-1H-pyrazol-3-yl)-5-isopropyl-5,6,7,8-tetrahydropyrimido[5″,4″:4′,5′]pyrrolo[3′,2′: 3,4]azepino[1,2-a]indole-11-carboxamide] |  | 0.881 | 3.25 | 2.21
CC(C)n1c2c(c3c(N)ncnc31)-c1ccc(Cl)c(F)c1C(=O)NC2 [Example 50, 12-amino-3-chloro-4-fluoro-8-isopropyl-7,8-dihydrobenzo[c]pyrimido[5′,4′:4,5]pyrrolo[3,2-e]azepin-5(6H)-one] |  | 2.18 | 5.08 | 2.57
CC(C)n1c2c(c3c(N)ncnc31)-c1cc3ccc(C(F)(F)F)cc3n1C(=O)NC2 [Example 82, 1-amino-5-isopropyl-11-(trifluoromethyl)-6,7-dihydropyrimido[5″,4″:4′,5′]pyrrolo[2′,3′: 5,6][1,3]diazepino[1,7-a]indol-8(5H)-one] |  | 0.358 | 0.821 | 0.42
Cc1cc(NC(=O)c2ccc3cc4n(c3c2)CCCc2c-4c3c(N)ncnc3n2C(C)C)nn1C [Example 98, 1-amino-N-(1,5-dimethyl-1H-pyrazol-3-yl)-5-isopropyl-5,6,7,8-tetrahydropyrimido[5″,4″:4′,5′]pyrrolo[3′,2′: 3,4]azepino[1,2-a]indole-11-carboxamide] |  | 2.21 | 7.95 | 4.07
CC(C)n1c2c(c3c(N)ncnc31)-c1ccc(NC(=O)NC3CC3)cc1C(=O)NC2 [Example 49, 1-(12-amino-8-isopropyl-5-oxo-5,6,7,8-tetrahydrobenzo[c]pyrimido[5′,4′:4,5]pyrrolo[3,2-e]azepin-3-yl)-3-cyclopropylurea] |  | 8.42 |  | 
COc1ccc2c(c1)cc1n2C(=O)NCc2c-1c1c(N)ncnc1n2C(C)C [Example 85, 1-amino-5-isopropyl-12-methoxy-6,7-dihydropyrimido[5″,4″:4′,5′]pyrrolo[2′,3′:5,6][1,3]diazepino[1,7-a]indol-8(5H)-one] |  | 0.389 | 0.96 | 0.501
CC(C)n1c2c(c3c(N)ncnc31)-c1cnn(C3CC3)c1C(=O)NC2 [Example 109, 11-amino-3-cyclopropyl-7-isopropyl-3,5,6,7-tetrahydro-4H-pyrazolo[3,4-c]pyrimido[5′,4′:4,5]pyrrolo[3,2-e]azepin-4-one 2,2,2-trifluoroacetate] |  | 1.78 | 2.27 | 1.81
COc1ccc2cc3n(c2c1)C(=O)NCc1c-3c2c(N)ncnc2n1C(C)C [Example 79, 1-amino-5-isopropyl-11-methoxy-6,7-dihydropyrimido[5″,4″:4′,5′]pyrrolo[2′,3′: 5,6][1,3]diazepino[1,7-a]indol-8(5H)-one] |  | 0.356 | 0.591 | 0.27
CC(C)n1c2c(c3c(N)ncnc31)-c1cc3ccc(Cl)cc3n1C(=O)NC2 [Example 84, 1-amino-11-chloro-5-isopropyl-6,7-dihydropyrimido[5″,4″:4′,5′]pyrrolo[2′,3′: 5,6][1,3]diazepino[1,7-a]indol-8(5H)-one] |  | 0.182 | 0.634 | 0.244
CC(C)n1c2c(c3c(N)ncnc31)-c1ccc(NC(=O)CC3CC3)cc1C(=O)NC2 [Example 48, N-(12-amino-8-isopropyl-5-oxo-5,6,7,8-tetrahydrobenzo[c]pyrimido[5′,4′:4,5]pyrrolo[3,2-e]azepin-3-yl)-2-cyclopropylacetamide] |  | 2.44 |  | 7.88
CCC(=O)N1Cc2c(noc2C2CC2)-c2c(n(C(C)C)c3ncnc(N)c23)C1 [Example 37, 1-(11-amino-3-cyclopropyl-7-isopropyl-6,7-dihydroisoxazolo[4,3-c]pyrimido[5′,4′:4,5]pyrrolo[3,2-e]azepin-5(4H)-yl)propan-1-one 2,2,2-trifluoroacetate] |  | 0.318 | 1.22 | 1.28
